Test results published in patent US9718905B2, “Polythiophene, water-soluble electrically conductive polymer using it, and method for producing it” (TOSOH CORPORATION, priority 2012, dated 2017).

Assays:
[1] = Water solubility of thiophene compound (monomer); assay type: physicochemical
Protocol: The thiophene compound used as the material is more preferably one having water solubility to such an extent that it is dissolved in water at room temperature or with heating in an amount of at least 0.5 wt %.
The thiophene compound used as a material is more preferably one having water solubility to such an extent that it is soluble in water at room temperature or with heating in an amount of at least 0.5 wt %.

[2] = Storage and handling in air; assay type: physicochemical

SMILES	water solubility ([1]; at room temperature)	storage and handling in air [2]	water solubility ([1]; temperature not stated)
O=S(=O)([O-])CCNCC1COc2cscc2O1.[K+] (stereo not drawn) [Example 1, Potassium N-(2,3-dihydro-thieno[3,4-b][1,4]dioxin-2-ylmethyl)-2-aminoethanesulfonate]	at least 1 wt %	could be stored and handled in air	–
CN(CCS(=O)(=O)[O-])CC1COc2cscc2O1.[Na+] (stereo not drawn) [Example 2, Sodium N-methyl-N-(2,3-dihydro-thieno[3,4-b][1,4]dioxin-2-ylmethyl)-2-aminoethanesulfonate]	at least 1 wt %	could be stored and handled in air	–
O=S(=O)([O-])CC1COc2cscc2O1.[Na+] (stereo not drawn) [Example 3, Sodium 2,3-dihydro-thieno[3,4-b][1,4]dioxin-2-ylmethanesulfonate]	at least 1 wt %	could be stored and handled in air	–
O=S(=O)([O-])CCCCCCC1COc2cscc2O1.[Na+] (stereo not drawn) [Example 4, sodium 6-(2,3-dihydro-thieno[3,4-b][1,4]dioxin-2-yl)-1-hexanesulfonate]	at least 1 wt %	could be stored and handled in air	–
O=S(=O)([O-])c1ccc(OCC2COc3cscc3O2)cc1.[K+] (stereo not drawn) [Example 17, Potassium O-(2,3-dihydro-thieno[3,4-b][1,4]dioxin-2-ylmethyl)-4-phenolsulfonate]	–	could be stored and handled in air	at least 1 wt %
O=S(=O)([O-])c1ccc(OCC2COc3cscc3O2)cc1.[Na+] (stereo not drawn) [Example 18, sodium O-(2,3-dihydro-thieno[3,4-b][1,4]dioxin-2-ylmethyl)-4-phenolsulfonate]	–	could be stored and handled in air	at least 1%
